Data reported in ChEMBL document CHEMBL1145550, “Halichonadin E, a dimeric sesquiterpenoid from the sponge Halichondria sp” (J Nat Prod, 2008).
Converted amounts (≈) assume the structure as drawn.

Columns and labels:
L1210 = test: Cytotoxicity against mouse L1210 cells; assay type: functional, cell-based
KB = test: Cytotoxicity against human KB cells; assay type: functional, cell-based

C=C1CCC[C@]2(C)CC[C@@H](C(C)C)[C@H](NC(=O)N[C@]3(C)CC[C@@H]4[C@H]([C@@H]5[C@H](C)CC[C@H]53)C4(C)C)[C@@H]12 [HALICHONADIN E]
IC50 (L1210): 3 µg/mL (≈ 6.4 µM)
IC50 (KB): 2.6 µg/mL (≈ 5.55 µM)
